Assay results reported in patent KR20080020768A, “항균 효과를 갖는 목단피의 추출물로부터 분리된 신규구조의 6‘-오-바닐릴옥시파에오니플로린 화합물을유효성분으로 함유하는 조성물” (priority 2006, dated 2008).
In brackets after ≈: the same amount, converted by molar mass.

Key:
[1] = tested on: MRSA 6 animal (chicken) isolate [동물(닭) 분리주]; experiment: Minimum inhibitory concentration (MIC) measurement; type: cell-based, methicillin-resistant S. aureus; conditions: Staphylococcus aureus, 24 h, read-out: minimum inhibitory concentration (MIC)
[2] = tested on: Vibrio cholerae O139 JOL376; experiment: Minimum inhibitory concentration (MIC) measurement; type: cell-based; conditions: O139JOL376, 24 h, read-out: minimum inhibitory concentration (MIC)
[3] = tested on: E. coli O157 animal isolate [동물 분리주]; experiment: Minimum inhibitory concentration (MIC) measurement; type: cell-based; conditions: Escherichia coli, 24 h, read-out: minimum inhibitory concentration (MIC)
MRSA ATCC 700698 = experiment: Minimum inhibitory concentration (MIC) measurement; type: cell-based, methicillin-resistant S. aureus; conditions: Staphylococcus aureus, 24 h, read-out: minimum inhibitory concentration (MIC)
[4] = tested on: MRSA 104 human isolate [사람 분리주]; experiment: Minimum inhibitory concentration (MIC) measurement; type: cell-based, methicillin-resistant S. aureus; conditions: Staphylococcus aureus, 24 h, read-out: minimum inhibitory concentration (MIC)
[5] = tested on: Shigrlla dysenteriae JOL377; experiment: Minimum inhibitory concentration (MIC) measurement; type: cell-based; conditions: 24 h, read-out: minimum inhibitory concentration (MIC)
[6] = tested on: Salmonella paratyphi A JOL381; experiment: Minimum inhibitory concentration (MIC) measurement; type: cell-based; conditions: Salmonella enterica, 24 h, read-out: minimum inhibitory concentration (MIC)
[7] = tested on: Salmonella enteritidis standard strain (Sal-36) [수과연표준균주 (Sal-36)]; experiment: Minimum inhibitory concentration (MIC) measurement; type: cell-based; conditions: Salmonella enterica, 24 h, read-out: minimum inhibitory concentration (MIC)
[8] = tested on: Shigella dysenteriae ATCC 49557; experiment: Minimum inhibitory concentration (MIC) measurement; type: cell-based; conditions: ATCC49557, 24 h, read-out: minimum inhibitory concentration (MIC)
[9] = tested on: Vibrio cholerae O1 JOL375; experiment: Minimum inhibitory concentration (MIC) measurement; type: cell-based; conditions: O1JOL375, 24 h, read-out: minimum inhibitory concentration (MIC)
E. coli O157 ATCC 35150 = experiment: Minimum inhibitory concentration (MIC) measurement; type: cell-based; conditions: Escherichia coli, ATCC35150, 24 h, read-out: minimum inhibitory concentration (MIC)
Salmonella typhi JOL380 = experiment: Minimum inhibitory concentration (MIC) measurement; type: cell-based; conditions: Salmonella enterica, 24 h, read-out: minimum inhibitory concentration (MIC)
[10] = tested on: E. coli K99 standard strain (E-125) [수과연표준균주 (E-125)]; experiment: Minimum inhibitory concentration (MIC) measurement; type: cell-based; conditions: Escherichia coli, 24 h, read-out: minimum inhibitory concentration (MIC)
E. coli O157 ATCC 43890 = experiment: Minimum inhibitory concentration (MIC) measurement; type: cell-based; conditions: Escherichia coli, ATCC43890, 24 h, read-out: minimum inhibitory concentration (MIC)
[11] = tested on: E. coli K88 standard strain (E-126) [수과연표준균주 (E-126)]; experiment: Minimum inhibitory concentration (MIC) measurement; type: cell-based; conditions: Escherichia coli, 24 h, read-out: minimum inhibitory concentration (MIC)
[12] = tested on: Salmonella gallinarium standard strain [수과연표준균주]; experiment: Minimum inhibitory concentration (MIC) measurement; type: cell-based; conditions: 24 h, read-out: minimum inhibitory concentration (MIC)
[13] = tested on: Salmonella typhimurium standard strain (Sal-13) [수과연표준균주 (Sal-13)]; experiment: Minimum inhibitory concentration (MIC) measurement; type: cell-based; conditions: Salmonella enterica, 24 h, read-out: minimum inhibitory concentration (MIC)
[14] = tested on: Shigella flexeneri JOL378; experiment: Minimum inhibitory concentration (MIC) measurement; type: cell-based; conditions: JOL378, 24 h, read-out: minimum inhibitory concentration (MIC)
[15] = tested on: all 18 causative bacteria of zoonotic infectious diseases [인수 공통 감염병을 유발하는 원인균 18종 모두]; experiment: Minimum inhibitory concentration (MIC) measurement, all 18 strains; type: cell-based; conditions: 24 h; range over all 18 strains

| Structure (SMILES) | MIC [1] [µg/mL] | MIC [2] [µg/mL] | MIC [3] [µg/mL] | MIC (MRSA ATCC 700698) [µg/mL] | MIC [4] [µg/mL] | MIC [5] [µg/mL] | MIC [6] [µg/mL] | MIC [7] [µg/mL] | MIC [8] [µg/mL] | MIC [9] [µg/mL] | MIC (E. coli O157 ATCC 35150) [µg/mL] | MIC (Salmonella typhi JOL380) [µg/mL] | MIC [10] [µg/mL] | MIC (E. coli O157 ATCC 43890) [µg/mL] | MIC [11] [µg/mL] | MIC [12] [µg/mL] | MIC [13] [µg/mL] | MIC [14] [µg/mL] | MIC [15] [µg/mL] |
| --- | --- | --- | --- | --- | --- | --- | --- | --- | --- | --- | --- | --- | --- | --- | --- | --- | --- | --- | --- |
| CC1(C)S[C@@H]2[C@H](NC(=O)Cc3ccccc3)C(=O)N2[C@H]1C(=O)O [Penicillin G] | > 100 | 1 (≈ 2.99 µM) | > 100 | 100 (≈ 299 µM) | > 100 | > 100 | > 100 | 50 (≈ 150 µM) | > 100 | > 100 | 50 (≈ 150 µM) | > 100 | 50 (≈ 150 µM) | 50 (≈ 150 µM) | 100 (≈ 299 µM) | 10 (≈ 29.9 µM) | 10 (≈ 29.9 µM) | > 100 | – |
| NCC1OC(OC2C(N)CC(N)C(OC3OC(CO)C(O)C(N)C3O)C2O)C(O)C(O)C1O (centres unmarked) [Kanamycin A] | 50 (≈ 103 µM) | 50 (≈ 103 µM) | > 100 | > 100 | > 100 | > 100 | > 100 | 50 (≈ 103 µM) | > 100 | > 100 | 10 (≈ 20.6 µM) | 50 (≈ 103 µM) | – | 10 (≈ 20.6 µM) | 50 (≈ 103 µM) | 50 (≈ 103 µM) | 50 (≈ 103 µM) | 10 (≈ 20.6 µM) | – |
| COc1cc(C(=O)OCC2OC(OC34CC5C6(O)CC3(C)OC(O6)C54COC(=O)c3ccc(O)cc3)C(O)C(O)C2O)ccc1O (centres unmarked) [6′-오-바닐릴옥시파에오니플로린, 6'-O-vanillyloxypaeoniflorin] | 300 (≈ 464 µM) | 100 (≈ 155 µM) | 200 (≈ 309 µM) | 200 (≈ 309 µM) | 200 (≈ 309 µM) | 200 (≈ 309 µM) | 200 (≈ 309 µM) | 200 (≈ 309 µM) | 500 (≈ 773 µM) | 100 (≈ 155 µM) | 300 (≈ 464 µM) | 200 (≈ 309 µM) | – | 200 (≈ 309 µM) | 200 (≈ 309 µM) | 200 (≈ 309 µM) | 200 (≈ 309 µM) | 200 (≈ 309 µM) | 100 to 500 (≈ 155 to 773 µM) |
